In US20210000904A1, “NOVEL USE OF MAYDIS STIGMA EXTRACT IN PROPHYLAXIS AND THERAPY OF SLEEP DISORDER” (KONKUK UNIVERSITY GLOBAL INDUSTRY-ACADEMIC COLLABORATION …, priority 2018, published 2021):

Tested on: ICR mice
Assay: Caffeine sleep deprivation model with pentobarbital-induced sleep
Type: in vivo, mouse
Conditions: caffeine 10 mg/kg i.p., pentobarbital 42 mg/kg after 30 minutes

## Cn1c(=O)c2c(ncn2C)n(C)c1=O [caffeine]
  sleep duration decrease compared to negative control group: 1,000 seconds
  sleep onset time increase compared to negative control group: about 50 seconds
